Measurements from the NIST ThermoML archive (doi:10.1016/j.jct.2016.09.028).
Numbers after ± are expanded uncertainties.

Experiment: xn = mol fraction of the nth substance listed
Conditions: 100 kPa, Liquid; for speed of sound: Frequency=3 MHz, Sing-around technique in a fixed-path interferometer; for mass density: Vibrating tube method

Nc1ccccc1 [aniline] + CCn1cc[n+](C)c1.F[B-](F)(F)F
Conditions | mass density, 293.15 K [kg/m3] | mass density, 303.15 K [kg/m3] | mass density, 313.15 K [kg/m3] | mass density, 323.15 K [kg/m3] | speed of sound, 293.15 K [m/s] | speed of sound, 303.15 K [m/s] | speed of sound, 313.15 K [m/s] | speed of sound, 323.15 K [m/s]
x2 = 0 | 1021.69 ± 1 | 1013.04 ± 1 | 1004.36 ± 1 | 995.66 ± 1 | 1656.8 ± 1.3 | 1618.3 ± 1.3 | 1580 ± 1.3 | 1541.9 ± 1.3
x2 = 0.1008 | 1068.09 ± 1.5 | 1059.52 ± 1.5 | 1050.95 ± 1.5 | 1042.39 ± 1.4 | 1673.6 ± 1.4 | 1634.2 ± 1.4 | 1596.5 ± 1.4 | 1561.8 ± 1.4
x2 = 0.2035 | 1112.92 ± 1.5 | 1104.8 ± 1.5 | 1096.69 ± 1.5 | 1088.57 ± 1.5 | 1684.8 ± 1.5 | 1650.6 ± 1.5 | 1616.2 ± 1.5 | 1583 ± 1.5
x2 = 0.3059 | 1153.03 ± 1.6 | 1144.58 ± 1.6 | 1136.13 ± 1.5 | 1127.68 ± 1.5 | 1689.8 ± 1.6 | 1657.2 ± 1.6 | 1625.5 ± 1.6 | 1593 ± 1.6
x2 = 0.4053 | 1183.5 ± 1.6 | 1175.21 ± 1.6 | 1166.91 ± 1.6 | 1158.62 ± 1.6 | 1688.9 ± 1.7 | 1658.9 ± 1.7 | 1628.7 ± 1.7 | 1596.8 ± 1.7
x2 = 0.5073 | 1208.33 ± 1.6 | 1200.1 ± 1.6 | 1191.87 ± 1.6 | 1183.64 ± 1.6 | 1684.6 ± 1.8 | 1654.5 ± 1.8 | 1624.2 ± 1.8 | 1593.2 ± 1.8
x2 = 0.6013 | 1227.06 ± 1.7 | 1219.01 ± 1.7 | 1210.96 ± 1.7 | 1202.91 ± 1.7 | 1673.9 ± 1.9 | 1646.2 ± 1.9 | 1617.6 ± 1.9 | 1589.3 ± 1.9
x2 = 0.7046 | 1244.52 ± 1.8 | 1236.64 ± 1.8 | 1228.76 ± 1.8 | 1220.88 ± 1.8 | 1660.6 ± 2 | 1634.7 ± 2 | 1608.8 ± 2 | 1582.3 ± 2
x2 = 0.8067 | 1260.47 ± 1.9 | 1252.74 ± 1.9 | 1245.01 ± 1.9 | 1237.28 ± 1.8 | 1648.4 ± 2.1 | 1623.8 ± 2.1 | 1599.4 ± 2.1 | 1575.4 ± 2.1
x2 = 0.9059 | 1272.26 ± 2 | 1264.62 ± 2 | 1256.98 ± 2 | 1249.34 ± 1.9 | 1638.8 ± 2.2 | 1614.2 ± 2.2 | 1591.8 ± 2.2 | 1568.9 ± 2.2
